Assay results: patent publication US11820754B2, “Polymorphs of an SSAO inhibitor” (Eli Lilly and Company, priority 2020, dated 2023)

Assay: Competitive slurry study (Form I vs Form II, XRPD of wet cake)
Format: physicochemical
Settings: for XRPD Pattern (wet cake): 800 rpm
Procedure: XRPD analyses were performed with techniques and equipments known in the art with Cu K-alpha radiation.
Competitive slurry experiments were performed at 25° C. and 50° C. Saturated solutions of Form I in ACN and acetone at 25° C. and 50° C. were prepared. About 15 mg of Form I and Form II were weighted into the solutions respectively, and the suspensions were slurried for 1 or 3 days at 800 rpm.

SMILES	Conversion of form mixture in slurry, as determined by XRPD (25 °C and 50 °C, ACN and acetone, slurried 1 or 3 days)	XRPD Pattern (wet cake) (ACN, 25 °C, slurry time 1 day)	XRPD Pattern (wet cake) (ACN, 25 °C, slurry time 3 days)	XRPD Pattern (wet cake) (ACN, 50 °C, slurry time 1 day)	XRPD Pattern (wet cake) (Acetone, 25 °C, slurry time 1 day)	XRPD Pattern (wet cake) (Acetone, 50 °C, slurry time 1 day)	XRPD Pattern (wet cake) (Acetone, 50 °C, slurry time 3 days)	Relative thermodynamic stability of polymorphic forms (versus Form I, at a temperature of 50 °C or below)
COC1CCN(c2ncc(OC/C(=C/F)CN)cn2)CC1.Cc1ccc(S(=O)(=O)O)cc1 [Form I + Form II]	completely converted to Form II	Form I + Form II	Form II	Form II	Form II	Form I + Form II	Form II	
COC1CCN(c2ncc(OC/C(=C/F)CN)cn2)CC1.Cc1ccc(S(=O)(=O)O)cc1 [Form II, (2E)-3-fluoro-2-({[2-(4-methoxypiperidin-1-yl)pyrimidin-5-yl]oxy}methyl)prop-2-en-1-aminium 4-methylbenzenesulfonate]								more thermodynamically stable
